Measured values reported in paper PMC7894572 (Chemmedchem, 2020).
Read-outs that look alike come from different tables or passages of the source.

What was measured:
SARS‐CoV PL^pro [1] = target: T1, SARS‐CoV PL^pro (Severe acute respiratory syndrome coronavirus, UniProt P0C6X7); conditions: read-out: IC50 SARS‐CoV PL^pro; cited from earlier work
in vitro = conditions: African green monkey
SARS‐CoV‐2 PL^pro = SARS‐CoV‐2 PL^pro (Severe acute respiratory syndrome coronavirus 2, UniProt P0DTD1); assay: biochemical; format: biochemical
SARS‐CoV‐2 = assay: microbe, parasite or virus in culture; format: cell-based; conditions: for EC50: Severe acute respiratory syndrome coronavirus 2, Vero C1008, 24 h, read-out: EC50 inhibition of SARS‐CoV‐2 replication
SARS‐CoV PL^pro [2] = target: T1, SARS‐CoV PL^pro; assay: biochemical; format: biochemical; conditions: for inhibition at 100 µM: read-out: Inhibition SARS‐CoV PL^pro, class (Table 1)
[3] = read-out: Inhibition SARS‐CoV‐2 PL^pro, class (Table 1)

SMILES | CC50 (in vitro) | melting point | IC50 (SARS‐CoV‐2 PL^pro) | SI (selectivity index) (SARS‐CoV‐2) | EC50 (SARS‐CoV‐2) | IC50 (SARS‐CoV PL^pro [2]) | further results
CCc1ccccc1C(=O)NC(C)c1ccc2ccccc2c1 (stereo not drawn) [Compound 19] | – | – | – | – | – | – | IC50 (SARS‐CoV PL^pro [1]): > 200 µM
Cc1cc(N)ccc1C(=O)N[C@H](C)c1cccc2ccccc12.Cl [Compound 2 p, (R)‐4‐Amino‐2‐methyl‐N‐[1‐(naphth‐1‐yl)ethyl]benzamide hydrochloride] | > 500 µM | 231 °C | 7.5 ± 0.6 µM | >31.7 | 15.8 ± 1.59 µM | – | –
C[C@H](c1cccc2ccccc12)N1CCC(C(=O)NCc2cccc(F)c2)CC1 [Compound 20] | – | – | – | – | – | – | IC50 (SARS‐CoV PL^pro [1]): 0.15 µM
C[C@H](c1cccc2ccccc12)N1Cc2ccc(N)cc2C1 [Compound 14 k, 2‐[(1R)‐1‐Naphth‐1‐ylethyl]‐2,3‐dihydro‐1H‐isoindol‐5‐amine] | > 500 µM | – | 57 ± 1 µM | – | – | 4.9 ± 0.3 µM | Activity in the viral replication assay, in words (SARS‐CoV‐2; SARS‐CoV‐2, Vero E6 cells): completely inactive
C[C@@H](NC(=O)c1ccccc1Cl)c1cccc2ccccc12 [Compound 2 i, 2‐Chloro‐N‐[(1R)‐1‐naphth‐1‐ylethyl]benzamide] | 376 ± 1.36 µM | 133 °C | 15 ± 2 µM | 212 | 1.77 ± 1.6 µM | 6.5 ± 0.8 µM | –
C[C@@H](NC(=O)c1ccccc1F)c1cccc2ccccc12 [Compound 2 f, 2‐Fluor‐N‐[(1R)‐1‐naphth‐1‐ylethyl]benzamide] | – | 135 °C | – | – | – | 9 ± 1 µM | inhibition at 100 µM (SARS‐CoV‐2 PL^pro; read-out: Percentage inhibition SARS‐CoV‐2 PL^pro): 67%
C[C@H](c1cccc2ccccc12)N1Cc2ccccc2C1.Cl [Compound 14 h, 2‐[(1R)‐1‐Naphth‐1‐ylethyl]‐2,3‐dihydro‐1H‐isoindol hydrochloride] | 442 ± 1.37 µM | – | 7.6 ± 0.2 µM | 56.3 | 7.85 ± 1.5 µM | 2.9 ± 0.2 µM | –
CC(C(=O)NC1CCCCC1)c1cccc2ccccc12 (stereo not drawn) [Compound 11 d, N ‐Cyclohexyl‐2‐naphth‐1‐ylpropanamide] | – | 151 °C | – | – | – | – | inhibition at 100 µM (SARS‐CoV PL^pro [2]): < 50%; inhibition at 100 µM (SARS‐CoV‐2 PL^pro; [3]): < 50%
C[C@@H](NC(=O)c1ccccc1I)c1cccc2ccccc12 [Compound 2 h, 2‐Iodo‐N‐[(1R)‐1‐naphth‐1‐ylethyl]benzamide] | – | 161 °C | – | – | – | 25 ± 3 µM | inhibition at 100 µM (SARS‐CoV‐2 PL^pro; [3]): < 50%
CC(C(=O)Nc1ccccc1F)c1cccc2ccccc12 (stereo not drawn) [Compound 11 b, N ‐(2‐Fluorphenyl)‐2‐naphth‐1‐ylpropanamide] | – | 116 °C | – | – | – | – | inhibition at 100 µM (SARS‐CoV PL^pro [2]): < 50%; inhibition at 100 µM (SARS‐CoV‐2 PL^pro; [3]): < 50%
Cc1ccsc1C(=O)N[C@H](C)c1cccc2ccccc12 [Compound 2 n, 3‐Methyl‐N‐[(1R)‐1‐naphth‐1‐ylethyl]thiophene‐2‐carboxamide] | > 500 µM | – | 42 ± 6 µM | >105 | 4.74 ± 1.35 µM | 14 ± 1 µM | –
